In general, Kd refers to a measure of binding affinity in units of concentration. Broadly, the stoichiometry N is the number of molecules, sites or subunits per partner or assembly.

Kd and stoichiometry N data for five molecules are collected here from article PMC4410016 (Cell reports, 2015).

The target of test [1] is MtrF (Neisseria gonorrhoeae, UniProt Q9RNX2, W420A). In words: biochemical.
Test [2] deals with MtrF (Neisseria gonorrhoeae, UniProt Q9RNX2). Description: isothermal titration calorimetry. The class given is binding.
The target of test [3] is Neisseria gonorrhoeae MtrF transporter (Neisseria gonorrhoeae). In words: SEC. Background: Size exclusion chromatography separates by hydrodynamic size, large species first.

As to `Nc1ccc(C(=O)O)cc1` [p-aminobenzoic acid], the dissociation constant (Kd) was found to be 41.1 ± 11.5 µM in test [1] and 0.54 ± 0.02 µM in test [2].
For `Nc1ccc(S(=O)(=O)Nc2nccs2)cc1` [sulfathiazole], in that order: 50.8 ± 8.9 µM and 1.52 ± 0.07 µM.
“Neisseria gonorrhoeae MtrF transporter (natural protein)” displayed a stoichiometry N in test [3] of 2.
Regarding `Cc1cc(C)nc(NS(=O)(=O)c2ccc(N)cc2)n1` [sulfamethazine], the figures for the Kd in test [1] and in test [2] were 10.8 ± 1.17 µM and 0.33 ± 0.02 µM, respectively.
On the same counts, the results for `Nc1ccc(S(=O)(=O)Nc2ncccn2)cc1` [sulfadiazine] are 106 ± 25.6 µM and 12.7 ± 0.62 µM.
